Data taken from US20250121083A1, “Tumor-Associated Calcium Signal Transducer 2 (TACSTD2) Antibody-Maytansine Conjugates and Methods of Use Thereof” (priority 2021, published 2025).

Legend:
[1] = tested on: MDA-MB-468 cells; experiment: In vitro cytotoxicity, Cell Titer-Glo, 8 d; assay type: cell-based; details: Homo sapiens, 192 h
Protocol: Methods: The TACSTD2-positive cell line, MDA-MB-468 was obtained from the ATCC cell bank. The cells were maintained in DMEM medium supplemented with 10% fetal bovine serum (Invitrogen), 2× Glutamax (Invitrogen) and 1× antibiotic/antimycotic (Corning). On the day of plating, 1500 cells/well were seeded onto 96-well plates in 100 μL normal growth medium. Cells were treated at various concentrations with 20 μL of diluted analytes (sacituzumab compound 21 ADC or free belotecan payload), and the plates were incubated at 37° C. in an atmosphere of 5% CO2. After 8 d, 100 μL/well of Cell Titer-Glo reagent (Promega) was added, and luminescence was measured using a Molecular Devices SpectraMax M5 plate reader. GraphPad Prism software was used for data analysis.

[2] = tested on: TACSTD2-positive cell lines Bx-PC-3, NCI-H87, NCI-H292, and MDA-MB-468; experiment: In vitro cytotoxicity, Cell Titer-Glo, 5 d; assay type: cell-based; details: 120 h, range over the four tested cell lines, read-out: IC50 concentrations
Protocol: The TACSTD2-positive cell lines, Bx-PC-3, […], NCI-H292, and MDA-MB-468 were obtained from the ATCC cell bank. The cells were maintained in RPMI 1640 or DMEM medium (Cellgro) supplemented with 10 or 20% fetal bovine serum (Invitrogen) and Glutamax (Invitrogen). 24 h prior to plating, cells were passaged to ensure log-phase growth. On the day of plating, 5000 cells/well were seeded onto 96-well plates in 100 μL normal growth medium supplemented with 10 IU penicillin and 10 μg/mL streptomycin (Cellgro). […] After 5 d, 100 μL/well of Cell Titer-Glo reagent (Promega) was added, and luminescence was measured using a Molecular Devices SpectraMax M5 plate reader. GraphPad Prism software was used for data analysis.

[3] = tested on: NCI-H292 xenograft model; experiment: NCI-H292 xenograft study; assay type: in vivo, female SCID Beige mice; details: 26 mg/kg x 4 doses, i.v.; 8 mice per group
Text: Methods: For the NCI-H292 study, female SCID Beige mice (8 per group) were inoculated subcutaneously with 5 million NCI-H292 cells in PBS. Treatment began when the tumors reached an average of 116 mm^3. For the NCI-N87 study, female BALB/c nude mice (8 per group) were inoculated subcutaneously with 10 million NCI-N87 cells in a 1:1 solution of PBS:Matrigel. Treatment began when the tumors reached an average of 221 mm^3. […] Two general dosing schedules were used: either test articles were delivered once every 3 wk (arrowheads) or they were delivered two times in a three week period, on days 0 and 7 (arrows). The dosing cycles were repeated twice, so that animals in the first dosing group received a total of 2 doses, while the animals in the second dosing group received a total of 4 doses. The animals were monitored twice weekly for body weight and tumor size. Animals were euthanized when tumors reached 2000 mm^3.
For the results shown in FIG. 8, CR refers to an individual mouse that has no detectable tumor volume, which could be for only a short time, for example, one observation, or it could be for a longer period. […] The lines in FIG. 8 show the mean tumor volume across all mice in a group. Because 8 mice were used per group, the line shown in FIG. 8 might not go to zero; however, there could still be individual animals that attained CR.

[4] = cited from earlier work

Question: Which results are given for `COc1cc2cc(c1Cl)N(C)C(=O)C[C@H](OC(=O)[C@H](C)N(C)C(C)=O)[C@]1(C)O[C@H]1[C@H](C)[C@@H]1C[C@@](O)(NC(=O)O1)[C@H](OC)/C=C/C=C(\C)C2` [free maytansine, maytansine]?
Answer: IC50 [1]: 0.77 nM; IC50 [2]: 0.05 to 0.23 nM

Question: Which “complete responses (CRs)” value [3] does the source give for Trodelvy [reference compound] here?
Answer: 1/8

B1: DS-1062: Daiichi Sankyo's TROP-2-targeted ADC (conjugate, chains of the INN, looked up)
VH: QVQLVQSGAEVKKPGASVKVSCKASGYTFTTAGMQWVRQAPGQGLEWMGWINTHSGVPKYAEDFKGRVTISADTSTSTAYLQLSSLKSEDTAVYYCARSGFGSSYWYFDVWGQGTLVTVSS
VL: DIQMTQSPSSLSASVGDRVTITCKASQDVSTAVAWYQQKPGKAPKLLIYSASYRYTGVPSRFSGSGSGTDFTLTISSLQPEDFAVYYCQQHYITPLTFGQGTKLEIK
modifications: deruxtecan payload
notes: Daiichi Sankyo's TROP-2-targeted ADC
Question: For B1, which intestinal toxicity ([4]; 10 mg/kg) is on record?
Answer: toxicity findings in the intestines

Question: What about the “safety signals in healthy tissues that express TROP-2” value ([4]; >10 mg/kg, skin, cornea, oral, esophageal, vaginal mucosa) of the same molecule?
Answer: key adverse safety signals (including necrosis)
